Laboratory results: PMC9056950, “Synthesis and biochemical evaluation of cephalosporin analogues equipped with chemical tethers” (RSC Advances, 2020)
In brackets after ≈: the same amount, converted by molar mass.

Columns and labels:
S. aureus (NCTC 6571) = tested on: T1, S. aureus (NCTC 6571); assay: microbe, parasite or virus in culture; set-up: minimum bactericidal concentration 50 on agar plates; settings: Staphylococcus aureus, NCTC6571; read-out: MBC50 S. aureus (NCTC 6571)
T1 construct: NCTC 6571

E. coli (BW25113) = tested on: T2, E. coli (BW25113); assay: microbe, parasite or virus in culture; set-up: minimum bactericidal concentration 50 on agar plates; settings: Escherichia coli, read-out: MBC50 E. coli (BW25113)
T2 construct: BW25113

E. coli = tested on: T3, E. coli; set-up: species or system Escherichia coli BW25113; broth growth inhibition, OD600, fitted MIC from dose curve, LB, 37 C; settings: 16 h; inhibitor
T3 construct: BW25113
Experimental: Stock solutions of each compound were prepared in 50% DMSO/water at ×100 the final concentration. In a 96-well plate, 2 μL of the test compounds were added to each well. Each plate included the positive control (750 μg mL^−1 chloramphenicol), the negative control (50% DMSO/water) and media only wells. To each test well was then added 198 μL of the required bacteria stock (OD 0.05). E. coli assays were carried out using LB broth, S. aureus were carried out using tryptic soy broth (TSB). Plates were incubated at 37 °C and the OD600 was measured (Epoch 2 Microplate Spectrophotometer, BioTek) every 30 min over a 17 h period. Tests were carried out in triplicate, the background absorbance was removed using reference wells, and the averages were determined. Dose curves were plotting using the OD600 after 16 h growth vs. compound concentration. MICs were defined as the minimum concentration of compound at which no significant growth was observed after 16 h incubation. MIC values were determined using GraphPad Prism (version 8.3.0). […] Further testing was carried out […] to determine whether the tethered compounds had any antibacterial activity. Table 2 summarises the MIC values determined for 1–12, MBC50 data is included in the ESI. ^†

PBP3 = target: T4, PBP3 (Escherichia coli, UniProt P0AD68); assay: thermal shift, ligand titration; assay type: binding; settings: 2 μM PBP3, 25 min at room temperature before melt 35-70 °C; approximate affinity, not a Kd
T4 construct: gene ftsI
T4 sequence (P0AD68 44-588): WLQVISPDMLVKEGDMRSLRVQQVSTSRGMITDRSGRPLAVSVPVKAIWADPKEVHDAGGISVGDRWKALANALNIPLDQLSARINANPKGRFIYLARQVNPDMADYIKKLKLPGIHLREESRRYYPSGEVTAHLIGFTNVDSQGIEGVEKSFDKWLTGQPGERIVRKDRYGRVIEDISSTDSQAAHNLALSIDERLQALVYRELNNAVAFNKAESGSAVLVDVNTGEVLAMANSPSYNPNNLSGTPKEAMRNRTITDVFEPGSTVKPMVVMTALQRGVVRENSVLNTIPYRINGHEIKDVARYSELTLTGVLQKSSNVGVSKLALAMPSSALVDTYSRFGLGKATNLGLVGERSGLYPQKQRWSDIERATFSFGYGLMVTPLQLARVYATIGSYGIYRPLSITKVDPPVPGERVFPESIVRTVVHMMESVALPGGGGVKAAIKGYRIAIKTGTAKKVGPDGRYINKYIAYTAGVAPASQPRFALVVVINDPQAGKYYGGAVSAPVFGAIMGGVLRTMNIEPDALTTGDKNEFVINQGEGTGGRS

PBP4 = target: T5, PBP4 (Bacillus subtilis, UniProt P32959); assay: biochemical; set-up: gene pbpE; commercial protein from Generon; fluorescent dye thermal shift assay, 500 nM PBP4 with 50 uM compound, delta Tm; settings: read-out: Average DTm/°C
T5 sequence (P32959 1-451): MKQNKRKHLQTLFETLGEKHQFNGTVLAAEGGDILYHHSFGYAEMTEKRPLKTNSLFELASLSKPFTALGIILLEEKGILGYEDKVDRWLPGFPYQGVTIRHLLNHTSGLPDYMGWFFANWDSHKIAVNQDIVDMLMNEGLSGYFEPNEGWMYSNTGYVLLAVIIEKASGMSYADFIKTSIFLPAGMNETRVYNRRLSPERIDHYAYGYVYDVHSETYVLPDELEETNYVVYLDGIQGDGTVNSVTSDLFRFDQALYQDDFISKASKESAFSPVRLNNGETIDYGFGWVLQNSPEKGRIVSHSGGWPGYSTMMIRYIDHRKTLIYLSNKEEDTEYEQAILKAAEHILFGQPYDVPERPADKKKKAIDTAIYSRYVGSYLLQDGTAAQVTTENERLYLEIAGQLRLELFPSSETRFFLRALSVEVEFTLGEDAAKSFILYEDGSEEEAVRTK
Experimental: The thermal shift assay was carried out using the Protein Thermal Shift™ assay kit (Applied Biosystems). 3 μM of purified E. coli PBP3 was incubated with the β-lactam analogues at 300 μM concentration in a mixture containing the Protein Thermal Shift™ Dye. The samples were then heated in a StepOnePlus™ Real-Time PCR System from 25 to 95 °C at a rate of 1 °C min^−1. Tests were carried out in triplicate and the averages plotted as the negative first derivative vs. temperature. Reference wells, i.e. solutions consisting only of only PBP3 with dye, PBP3 only, and dye only, were used as controls. Melting temperature (Tm) values were determined with and without each compound, and the change in melting temperature (ΔTm) was obtained, Fig. 2. The thermal shift assay with PBP4 was carried out using the protocol described for PBP3, with the follow deriviatisation: 500 nM of purified Bacillus subtilis PBP4 was incubated with 50 μM of the β-lactam analogues. A thermal shift assay was used to investigate the binding of the cephalexin analogues to the therapeutic target, PBP, in vitro. This assay provides a fast and inexpensive method of detecting a ligand binding to a protein of interest. Briefly, the protein is gradually heated in the presence of a fluorescent dye that binds non-specifically to the hydrophobic surfaces. […] A change in the melting temperature (Tm) when the protein is heated in the presence of a ligand, indicates a protein–ligand interaction. […] The PBPs can be divided into two main categories: high molecular mass (HMM) and low molecular mass (LMM).[13] PBP3 was chosen as a representative HMM PBP, and PBP4 as a representative LMM PBP. Cephalexin (1) has been previously reported to show good binding affinities for both PBP3 and PBP4.[14] Penicillin (11) and cefpodoxime (12) were included as positive controls. AmpC (Uniprot ID: P00811) was purchased from Abcam plc (Cambridge, UK). PBP4 (Uniprot ID: P32959) was purchased from Generon (Slough, UK).

SMILES	MBC (S. aureus (NCTC 6571)) [µM]	MBC (E. coli (BW25113)) [µM]	MIC (E. coli, best-fit) (E. coli) [µM]	equivalents required for >Tm1/2 (PBP3) [equivalents]	ΔTm at 50 µM (PBP4) [°C]
CC1=C(C(=O)O)N2C(=O)[C@@H](NC(=O)[C@H](N)c3ccccc3)[C@H]2SC1 [compound 1, cephalexin]	400 (≈ 139 µg/mL)	> 400	94.91 (≈ 33 µg/mL)	75	-0.882
CC1=C(C(=O)O)N2C(=O)[C@@H](NC(=O)[C@H](NC(=O)COCC(=O)NCCOCCOCCOCCOCCNC(=O)CCCCCN3C(=O)C=CC3=O)c3ccccc3)[C@H]2SC1 [compound 2, (6R,7R)-7-((R)-30-(2,5-Dioxo-2,5-dihydro-1H-pyrrol-1-yl)-4,8,25-trioxo-2-phenyl-6,12,15,18,21-pentaoxa-3,9,24-triazatriacontanamido)-3-methyl-8-oxo-5-thia-1-azabicyclo[4.2.0]oct-2-ene-2-carboxylic acid]	200 (≈ 175 µg/mL)	> 400			-1.95
CC1=C(C(=O)O)N2C(=O)[C@@H](NC(=O)[C@H](NC(=O)CCCCCN3C(=O)C=CC3=O)c3ccccc3)[C@H]2SC1 [compound 3, (6R,7R)-7-((R)-2-(6-(2,5-dioxo-2,5-dihyrdo-1H-pyrrol-1-yl)hexanamido)-2-phenylacetamido)-3-methyl-8-oxo-5-thia-1-azabicyclo[4.2.0]oct-2-ene-2-carboxylic acid]	200 (≈ 108 µg/mL)	> 400			-0.378
C#CCCC(=O)N[C@@H](C(=O)N[C@@H]1C(=O)N2C(C(=O)O)=C(C)CS[C@H]12)c1ccccc1 [compound 4, (6R,7R)-3-Methyl-8-oxo-7-[(2R)-2-(pent-4-ynamido)-2-phenylacetamido]-5-thia-1-azabicyclo[4.2.0]oct-2-ene-2-carboxylic acid]	50 (≈ 21.4 µg/mL)	> 400			-0.853
CC1=C(C(=O)O)N2C(=O)[C@@H](NC(=O)[C@H](NC(=O)CCCCC3CCSS3)c3ccccc3)[C@H]2SC1 (stereo partly drawn) [compound 5, (6R,7R)-7-[(2R)-2-[5-(1,2-Dithiolan-3-yl)pentanamido]-2-phenylacetamido]-3-methyl-8-oxo-5-thia-1-azabicyclo[4.2.0]oct-2-ene-2-carboxylic acid]	50 (≈ 26.8 µg/mL)	> 400			-0.464
CC1=C(C(=O)O)N2C(=O)[C@@H](NC(=O)[C@H](NC(=O)CCCC(=O)ON3C(=O)CCC3=O)c3ccccc3)[C@H]2SC1 [compound 6, (6R,7R)-7-[(2R)-2-{5-[(2,5-Dioxopyrrolidin-1-yl)oxy]-5-oxopentanamido}-2-phenylacetamido]-3-methyl-8-oxo-5-thia-1-azabicyclo[4.2.0]oct-2-ene-2-carboxylic acid]	200 (≈ 112 µg/mL)	> 400			-0.708
CC1=C(C(=O)O)N2C(=O)[C@@H](NC(=O)[C@H](NC(=O)CCCC(=O)O)c3ccccc3)[C@H]2SC1 [compound 7, (6R,7R)-7-[(2R)-2-(4-Carboxybutanamido)-2-phenylacetamido]-3-methyl-8-oxo-5-thia-1-azabicyclo[4.2.0]oct-2-ene-2-carboxylic acid]	200 (≈ 92.3 µg/mL)	> 400			-0.422
CC(=O)N[C@@H](C(=O)N[C@@H]1C(=O)N2C(C(=O)O)=C(C)CS[C@H]12)c1ccccc1 [compound 8, (6R,7R)-7-[(2R)-2-Acetamido-2-phenylacetamido]-3-methyl-8-oxo-5-thia-1-azabicyclo[4.2.0]oct-2-ene-2-carboxylic acid]	200 (≈ 77.9 µg/mL)	> 400			-0.248
CC1=C(C(=O)O)N2C(=O)[C@@H](NC(=O)[C@H](NC(=O)OC(C)(C)C)c3ccccc3)[C@H]2SC1 [compound 9, (6R,7R)-7-[(2R)-2-{[(Tert-butoxy)carbonyl]amino}-2-phenylacetamido]-3-methyl-8-oxo-5-thia-1-azabicyclo[4.2.0]oct-2-ene-2-carboxylic acid]	50 (≈ 22.4 µg/mL)	> 400			-0.809
CC1=C(C(=O)O)N2C(=O)[C@@H](NC(=O)[C@H](NC(=O)CCCCN)c3ccccc3)[C@H]2SC1 [compound 10, (6R,7R)-7-[(2R)-2-(5-Aminopentanamido)-2-phenylacetamido]-3-methyl-8-oxo-5-thia-1-azabicyclo[4.2.0]oct-2-ene-2-carboxylic acid]	50 (≈ 22.3 µg/mL)	> 400			-0.0272
COCC1=C(C(=O)O)N2C(=O)[C@@H](NC(=O)/C(=N\OC)c3csc(N)n3)[C@H]2SC1 [compound 12, cefpodoxime]	100 (≈ 42.7 µg/mL)	100 (≈ 42.7 µg/mL)	7.744 (≈ 3.31 µg/mL)		-0.695
